One series deals with 143B-luc. Description: spontaneous lung metastasis model of osteosarcoma (143B-luc implanted orthotopically into tibia). The series is classed as in vivo, athymic nude mice. As for the experimental part:
Tumor transplantation experiments. Animal experiments were performed in compliance with the guidelines of the Institute for Laboratory Animal Research, National Cancer Center Research Institute. Athymic nude mice or NOD/SCID mice (CLEA Japan) were purchased at 4 weeks of age and given at least 1 week to adapt to their new environment prior to tumor transplantation. On day 0, mice were anesthetized with 3% isoflurane and the right leg disinfected with 70% ethanol. Cells were aspirated into a 1 mL tuberculin syringe fitted with a 27-G needle. The needle was inserted through the cortex of the anterior tuberosity of the tibia with a rotating movement to avoid cortical fracture. Once the bone was traversed, the needle was inserted further to fracture the posterior cortex of the tibia. A 100 μL volume of solution containing freshly isolated CD133^high and CD133^low HOS-Luc (10^2, 10^3, 10^4, 10^5 cells per site) or 143B-Luc (1.5×10^6) was injected while slowly moving back the needle.
(§1) Monitoring tumor growth, lung metastasis, and toxicity with/without LAN-anti-miR-133a. For the assessment of tumorigenicity between CD133^high and CD133^low HOS-Luc cells, NOD/SCID mice were injected with D-luciferin (150 mg/kg, Promega) by intraperitoneal injection. Ten minutes later, photons from firefly luciferase were counted using the IVIS imaging system (Xenogen Corp.) according to the manufacturer's instructions. Each experimental condition included 5 animals per group and monitoring once a week. For the evaluation of LNA-anti-miR-133a administration into spontaneous lung metastasis of osteosarcoma model mice, individual mice were injected with 10 mg/kg of LNA-anti-miR-133a or saline via the tail vain. LNA were injected on following days 4, 11, 18, 25, 32 postinoculation of 143B-Luc cells. Each experimental condition included 10 animals per group. The development of subsequent lung metastasis was monitored once a week in vivo by the bioluminescent imaging described above for 5 weeks. All data were analyzed using LivingImage software (version 2.50, Xenogen). On day 36, the primary tumor and lung in 5 mice of each group were resected at necropsy for their weight, bioluminescent, and histological analyses. The blood examination, weight of whole body as well as heart, liver, and skeletal muscle, and histopathological examination were performed for the assessment of toxicity.
To extend the in vitro findings and to determine whether silencing of miR-133a could be an effective therapeutic option for osteosarcoma treatment, the effect of LNA-133a on a spontaneous lung metastasis model of osteosarcoma was examined. Experimentally, 1.5×10^6 cells of 143B transfected with firefly luciferase gene (143B-luc) were implanted orthotopically into the right proximal tibia of athymic nude mice. The implanted tumor growth and the presence of distant metastases were analyzed weekly for luciferase bioluminescence using an in vivo imaging system (IVIS). […] To assess the efficacy of the new treatment protocol, results were compared with three control groups (n=10 each): a saline control group, an LNA group, and a CDDP group. At 5 weeks, half the mice in each group were euthanized for further analysis; the remaining mice were monitored for survival.

Series [1] is described as follows: assessment of toxicity in LNA-treated tumor-bearing mice. It is filed as in vivo. Conditions: during the observation period. As for the experimental part:
as §1

The subject of series [2] is miR-133a. Description: miR-133a expression in 143B-luc tumors (qRT-PCR). It is filed as in vivo, human. Conditions: vs saline-treated mice. An excerpt:
RNA isolation and quantitative real-time RT-PCR of mRNAs and miRNAs. Total RNA was purified from cells and tumor tissues with an RNeasy Mini Kit and RNase-Free DNase Set (QIAGEN). For quantitative polymerase chain reaction (qPCR) of mRNAs, cDNA was synthesized using High-Capacity cDNA Reverse Transcription Kit (Applied Biosystems). For each qPCR reaction, equal amounts of cDNA were mixed with Platinum SYBER Green qPCR SuperMix (Invitrogen) and specific primers (Table 1). Gene expression levels were normalized by beta actin (ACTB) or glyceraldehyde 3-phosphate dehydrogenase (GAPDH). For qPCR of miRNAs, miRNA was converted to cDNA using the TaqMan MicroRNA Reverse Transcription Kit (Applied Biosystems). […]
To extend the in vitro findings and to determine whether silencing of miR-133a could be an effective therapeutic option for osteosarcoma treatment, the effect of LNA-133a on a spontaneous lung metastasis model of osteosarcoma was examined. […] The implanted tumor growth and the presence of distant metastases were analyzed weekly for luciferase bioluminescence using an in vivo imaging system (IVIS). […] At 5 weeks, half the mice in each group were euthanized for further analysis; the remaining mice were monitored for survival.
For orientation: Real-time PCR tracks product formation cycle by cycle.

Series [3] has as its system miR-133a. The series is described as follows: silencing of miR-133a in LNA-transfected CD133high cells (real-time RT-PCR). It is filed as cell-based, human. Particulars: CD133high SaOS2 and HOS cells, LNA 30 nM. The text has this: (§2) RNA isolation and quantitative real-time RT-PCR of mRNAs and miRNAs. Total RNA was purified from cells and tumor tissues with an RNeasy Mini Kit and RNase-Free DNase Set (QIAGEN). For quantitative polymerase chain reaction (qPCR) of mRNAs, cDNA was synthesized using High-Capacity cDNA Reverse Transcription Kit (Applied Biosystems). For each qPCR reaction, equal amounts of cDNA were mixed with Platinum SYBER Green qPCR SuperMix (Invitrogen) and specific primers (Table 1). Gene expression levels were normalized by beta actin (ACTB) or glyceraldehyde 3-phosphate dehydrogenase (GAPDH). For qPCR of miRNAs, miRNA was converted to cDNA using the TaqMan MicroRNA Reverse Transcription Kit (Applied Biosystems). RNU6B small nuclear RNA was amplified as an internal control. qPCR was performed using each miRNA-specific probe included with the TaqMan MicroRNA Assay on a Real-Time PCR System 7300 and SDS software (Applied Biosystems).
(§3) Transfection with synthetic miRNAs, LNAs, and siRNAs. […]

In series [4] the test system is CD133^high SaOS2 and HOS cells. The series is described as follows: cell proliferation after LNA transfection. It is filed as cell-based, human. Conditions: day 4 after transfection. As for the experimental part: Cell proliferation and cytotoxity assay. Cell proliferation rates and cell viability as an indicator for the relative sensitivity of the cells to doxorubicin, cisplatin, and methotrexate were determined using TetraColor ONE Cell proliferation Assay System (Seikagaku) according to the manufacturer's instructions. Cells growing in the logarithmic phase were seeded in 96-well plates (5×10^3/well), allowed to attach overnight, and then were treated with varying doses of doxorubicin (Sigma), cisplatin (Alexis), and methotrexate (Sigma) for 72 h. Triplicate wells were used for each treatment group. Absorbance was measured at 450 nm with a reference wavelength at 650 nm on EnVision (Wallac). The relative number of viable cells was expressed as the percent of cell viability.
as §3

Series [5] relates to CD133^high cells. Description: cytotoxicity assay (drug sensitivity) after LNA transfection. It is filed as cell-based, human. Particulars: DOX 0.4 μM or CDDP 5 μM, 48 h, 24 h after transfection. As for the experimental part:
Cell proliferation and cytotoxity assay. Cell proliferation rates and cell viability as an indicator for the relative sensitivity of the cells to doxorubicin, cisplatin, and methotrexate were determined using TetraColor ONE Cell proliferation Assay System (Seikagaku) according to the manufacturer's instructions. […] Triplicate wells were used for each treatment group. Absorbance was measured at 450 nm with a reference wavelength at 650 nm on EnVision (Wallac). The relative number of viable cells was expressed as the percent of cell viability.
(§4) Transfection with synthetic miRNAs, LNAs, and siRNAs. Synthetic hsa-miRs (Pre-miR-hsa-miR-1, -10b, -133a, and negative control (NC; Applied Biosystems, Table 2) and locked nucleic acids (LNAs) (LNA-1, -10b, -133a, and negative control, Exiqon, Table 3) were transfected into each type of cells at 30 nM each (final concentration) using DharmaFECT 1(GE Healthcare). Synthetic siRNAs (Bonac corporation, Table 4) were transfected into each type of cells at 100 nM each (final concentration) using DharmaFECT 1 (GE Healthcare). After 24 hours of incubation, cells were treated with chemotherapeutic agents for cytotoxicity assay or reseeded into invasion chambers for invasion assay.

The subject of series [6] is CD133^high cells. The series is described as follows: apoptotic cell count (Hoechst staining) after LNA transfection. It is filed as cell-based, human. Conditions: compared to control CD133high cells; CDDP 5 μM, 48 h.
Series [7] deals with CD133^high SaOS2 and HOS populations. The series is described as follows: invasion assay after LNA transfection. The series is classed as cell-based, human. As for the experimental part:
Invasion assay. Invasion assays were performed by using 24-well BD BioCoat Invasion Chambers with Matrigel (Becton-Dickinson). 1×10^5 cells, suspended in 500 μL DMEM or RPMI 1640 medium without FBS, were added to the upper chamber, and DMEM or RPMI 1640 medium with 10% FBS was added to the lower chamber. After incubation for 24 h or 36 h, the cells on the upper surface of the filter were completely removed by wiping them with cotton swabs. The filters were fixed in methanol and stained with 1% toluidine blue in 1% sodium tetraborate (Sysmex). Filters were then mounted onto slides, and cells on lower surfaces were counted. Each assay was performed in triplicate.
as §4

The subject of series [8] is CD133^high cells. Description: qPCR of genes associated with stemness, drug resistance and metastasis after LNA transfection. It is filed as cell-based, human. Conditions: β-actin internal control.
Excerpt: as §2, §3

Another series deals with SGMS2. Description: SGMS2 mRNA in 143B-luc tumors of LNA-133a-treated mice. The series is classed as in vivo, human.
Excerpt: as §2
Monitoring tumor growth, lung metastasis, and toxicity with/without LAN-anti-miR-133a. […] Ten minutes later, photons from firefly luciferase were counted using the IVIS imaging system (Xenogen Corp.) according to the manufacturer's instructions. […] The development of subsequent lung metastasis was monitored once a week in vivo by the bioluminescent imaging described above for 5 weeks. All data were analyzed using LivingImage software (version 2.50, Xenogen). […]

Entries after “also recorded” stand apart in the source; their conditions may differ.

Consider “LNA-133a: locked nucleic acid antisense to hsa-miR-133a-1, 5′-CAGCTGGTTGAAGGGGACCAA-3′ (Exiqon) (LNA-modified oligonucleotide from Exiqon, pattern not given here)”, for which the “Luminescence of lung (mean)” value with 143B-luc (IVIS bioluminescence) is 1744. The “Lung metastasis (mice with metastasis / mice in group)” value with 143B-luc (day 35) is reported as 7/10. Also, the “Tumor weight (mean)” value with 143B-luc (day 36, LNA-133a 10 mg kg-1 i.v., CDDP i.p.) came out at 3.143 g. The “toxic effects on various tissue including heart, liver, and skeletal muscle” value in series [1] is recorded as “minimal toxic effects”. Moreover, the “expression of miR-133a of tumors” value in the series on miR-133a [2] is given as “reduced miR-133a levels; also recorded: decreased”. Further, in the series with miR-133a [3], the “efficacy for the silencing of miR-133a” value was “confirmed; also recorded: knock-down”. Moreover, the proliferation rate entry in series [4] is “suppressed in proliferation rate to the same level of CD133^low cells transfected with LNA-NC”. In the series with CD133^high cells [5], the “sensitivity to DOX and CDDP (cell viability)” value is “enhanced sensitivity to DOX and CDDP”. Further, the “apoptotic cell death rate” value in the series with CD133^high cells [6] is “significantly higher apoptotic cell death rate”. The invasiveness entry in [7] is listed as “decreased the invasiveness”. In addition, in the series on CD133^high cells [8], the “expression of the molecules associated with CD133high phenotypes” value was “decreased”. In addition, in the series with SGMS2, the “expression of mRNA for SGMS2” value is reported as “increased expression”.

The values above are taken from patent US11260072B2, “MicroRNA-based methods and assays for osteocarcinoma” (3-D Matrix, Ltd., priority 2011, dated 2022).
